Source: patent US20260138965A1, “CRYSTALLINE FORMS OF A TYK2 INHIBITOR AND USES THEREOF” (Alumis Inc., priority 2022, published 2026)
≈ marks a conversion by molar mass, not a printed value.

Experiments:
Format in all cases: physicochemical
[1] = Solubility of crystalline Form 1 in aqueous and biorelevant media
[2] = Solubility of crystalline Form 1 in organic solvents; details: organic solvent or mixture
[3] = Solid form chemical and physical stability

In the case of `[2H]C([2H])([2H])CC(=O)c1cnc(NC(=O)C2CC2)cc1Nc1cccc(-c2ncn(C([2H])([2H])[2H])n2)c1OC` [Form 1, N-(4-((2-methoxy-3-(1-(methyl-d3)-1H-1,2,4-triazol-3-yl)phenyl)amino)-5-(propanoyl-3,3,3-d3)pyridin-2-yl) cyclopropanecarboxamide], the solubility ([1]; in FaSSIF) is reported as 1 to 2 µg/mL (≈ 2.34 to 4.69 µM), the solubility ([1]; in FeSSIF) is reported as 30 to 50 µg/mL (≈ 70.3 to 117 µM) and the solubility ([1]; simulated gastric fluid, in SGF) is reported as 3970 to 4280 µg/mL (≈ 9310 to 10000 µM). The solubility ([2]; in MeOH) was < 3000 µg/mL, the solubility ([2]; in MeOH/DCM (1/1)) was > 43000 µg/mL and the solubility ([2]; in THF) was < 17000 µg/mL. The solubility ([2]; in acetone) was < 3000 µg/mL, the solubility ([2]; in acetonitrile) was < 1000 µg/mL and the solubility ([2]; in ethanol) was < 1000 µg/mL. For the same compound, the solubility ([2]; in ethyl acetate) was < 1000 µg/mL, the solubility ([2]; in heptane) was < 1000 µg/mL and the solubility ([2]; in isopropyl alcohol) was < 1000 µg/mL. The solubility ([2]; in methyl t-butyl ether) was < 1000 µg/mL, the “time chemically and physically stable” value ([3]; 40° C./75% RH) was “at least 10 days” and the “time chemically and physically stable” value ([3]; 60° C.) was “at least 10 days”.
